Data set [1] is described as follows: Storage of solid forms at 40° C./75% RH or 25° C./97% RH. In kind it is physicochemical. The note with it: for 7 days storage @ 40° C./75% RH: appearance: table prints 40° C./5% RH, hydrochloride salt.
Test in data set [2]: as above
The format is physicochemical. The note with it: for 7 days storage @ 40° C./75% RH: resulting form (XRPD): 7 days / one week, hydrochloride salt. The procedure:
All retrieved solids from the crystallisation attempts were stored at 40° C. and 75% RH.

Data set [3] is described as follows: Stability studies (accelerated, ICH). In kind it is physicochemical. The procedure:
The compounds were assayed according to appearance, purity, related Substances, chiral purity, moisture, DSC, and XRPD

How the values of data set [4] were obtained:
After each addition of solvent, the system was shaken gently for 10 minutes at 50° C. and then allowed to stand at room temperature for 5 min before the addition of a new aliquot of solvent. After the assessment was completed, any suspensions obtained were matured and clear solutions were cooled at 5° C.

Data set [5] in a line: Gravimetric Vapor Sorption (GVS). In kind it is physicochemical. As to conditions: 0 to 90% RH; methanesulfonate salt. The text has this:
Gravimetric Vapor Sorption (GVS) isotherms were obtained using an SMS DVS Intrinsic moisture sorption analyser, controlled by DVS Intrinsic Control software v1.0.1.2 (or v 1.0.1.3), over a range of 0 to 90% relative humidity (RH).

A short description of data set [6]: Aqueous solubility of Form 1 of Compound 2. The format is physicochemical.
Data set [7] in a line: Organic (qualitative) solubility of Form 1 of Compound 2. The format is physicochemical.
A short description of data set [8]: Form conversion on heating (thermal analysis / XRPD). As to conditions: heated above 150° C. In kind it is physicochemical. The procedure: DSC data were collected on a TA Instruments Q2000 equipped with a 50 position auto-sampler. The calibration for thermal capacity was carried out using sapphire and the calibration for energy and temperature was carried out using certified indium. Typically 0.5-3 mg of each sample, in a pin-holed aluminium pan, was heated at 10° C./min from 25° C. to 300° C. A purge of dry nitrogen at 50 ml/min was maintained over the sample.

The next data set is described as follows: Forced degradation study. The format is physicochemical.
The nature of data set [9]: Solubility and metastable limit curves (clear point / cloud point, Crystal16). In kind it is physicochemical. The procedure: The samples were then cooled from 70 back to −8° C. at the same rate. The clear point upon heating (at 100% transmission) and the cloud point upon re-cooling (<100% transmission) were recorded using the Crystal16 instrument and the data is shown in Table 17. XRPD analysis was performed on all solids obtained post cooling.

As for `Cl.NCc1cc(Oc2cccc(C(=O)N3C[C@@H](O)[C@H](F)C3)c2)nc(C(F)(F)F)c1` [Form 1 of Compound 1, (R,R)-trans-(3-((4-(aminomethyl)-6-(trifluoromethyl)pyridin-2-yl)oxy)phenyl)(3-fluoro-4-hydroxypyrrolidin-1-yl)methanone, hydrochloride salt], in data set [1], the “7 days storage @ 40° C./75% RH: appearance” value is reported as “Waxy/glassy”. Further, in data set [2], the hygroscopicity result is “hygroscopic solid” and the “7 days storage @ 40° C./75% RH: resulting form (XRPD)” value is “transforms to Form 2”. Also, in data set [2] (after 24 hours), the “behaviour on storage at 40° C. and 75% RH” value is on record as “deliquescing”.
On to `Cl.NCc1cc(Oc2cccc(C(=O)N3C[C@@H](O)[C@H](F)C3)c2)nc(C(F)(F)F)c1` [Compound 1, (R,R)-trans-(3-((4-(aminomethyl)-6-(trifluoromethyl)pyridin-2-yl)oxy)phenyl)(3-fluoro-4-hydroxypyrrolidin-1-yl)methanone, hydrochloride salt], for which the “3 month accelerated stability” value in data set [3] (40° C./75% RH, 3 month) is “no significant changes in purity or absorption of moisture”.
Regarding `Cl.NCc1cc(Oc2cccc(C(=O)N3C[C@@H](O)[C@H](F)C3)c2)nc(C(F)(F)F)c1` [Amorphous Compound 1, (R,R)-trans-(3-((4-(aminomethyl)-6-(trifluoromethyl)pyridin-2-yl)oxy)phenyl)(3-fluoro-4-hydroxypyrrolidin-1-yl)methanone, hydrochloride salt], the “7 days storage @ 40° C./75% RH: appearance” value in data set [1] is given as “Glassy”. Also, in data set [4], the Solubility was 200-100.
By Aqueous Solubility is commonly meant how much of the substance goes into solution per volume. High values mean a readily soluble substance, low ones a poorly soluble substance. For `CS(=O)(=O)O.NCc1cc(Oc2cccc(C(=O)N3C[C@@H](O)[C@H](F)C3)c2)nc(C(F)(F)F)c1` [Form 1 of Compound 2, (R,R)-trans-(3-((4-(aminomethyl)-6-(trifluoromethyl)pyridin-2-yl)oxy)phenyl)(3-fluoro-4-hydroxypyrrolidin-1-yl)methanone, methanesulfonate salt], in data set [5], the “XRPD after the GVS analysis” value is on record as “Unchanged”. Further, the “Aqueous Solubility” value was over 107 mg/mL in data set [6] (pH 2), over 107 mg/mL in [6] (pH 7.4) and over 85 mg/mL in [6] (pH 10). The “Organic Solubility: Qualitative Solubility” value in [7] (isopropyl acetate, isopropanol, methyl-ethyl ketone, acetone, ethanol, methyl-t-butyl ether, 1,4 dioxane, toluene, tetrahydrofuran, dichloromethane, acetonitrile) was at most 10 mg/mL; in data set [7] (water, dimethyl sulfoxide) it was over 200 mg/mL. The “Polymorph stability on storage” value in data set [2] (7 days at 40° C./75% RH and 25° C./97% RH) was “stable for 7 days”.
For the compound `CS(=O)(=O)O.NCc1cc(Oc2cccc(C(=O)N3C[C@@H](O)[C@H](F)C3)c2)nc(C(F)(F)F)c1` [Form 2 of Compound 2, (R,R)-trans-(3-((4-(aminomethyl)-6-(trifluoromethyl)pyridin-2-yl)oxy)phenyl)(3-fluoro-4-hydroxypyrrolidin-1-yl)methanone, methanesulfonate salt], the “form change on heating” value in data set [8] was “can transform to Form 1”. Moreover, in [1] (7 days at 25° C./97% RH), the “form change after storage” value is “change also occurs”. Further, the “form change after GVS analysis and storage” value in data set [2] (after GVS analysis and 7 days at 40° C./75% RH) is given as “phase transformation towards Form 1”. Moreover, in [2] (humidity), the “form change in humidity” value is “converts to Form 1”.
`CS(=O)(=O)O.NCc1cc(Oc2cccc(C(=O)N3C[C@@H](O)[C@H](F)C3)c2)nc(C(F)(F)F)c1` [Compound 2, (R,R)-trans-(3-((4-(aminomethyl)-6-(trifluoromethyl)pyridin-2-yl)oxy)phenyl)(3-fluoro-4-hydroxypyrrolidin-1-yl)methanone, methanesulfonate salt]: the “ICH stability, 1 month data” value in [3] (long-term (25° C./60%) and accelerated (40° C./75%) conditions of 1-year and 2-year ICH studies) was “within limits for all attributes tested”. The “forced degradation, solid state, heat” value in the data set “Forced degradation study” (solid, 100° C., 24 hours) is listed as “stable”. Moreover, the “forced degradation, solid state, light” value in “Forced degradation study” (solid, max 365 nm, 24 hours) was “stable”. Moreover, the “forced degradation, solution state, heat” value in “Forced degradation study” (solution, 50° C. for 24 hours) was “stable”. In addition, the “Clear Point Temperature” value in data set [9] (5 mg in 1 mL IPA:water 95:5) was determined as 6.9 °C; in data set [9] (10 mg in 1 mL IPA:water 95:5), 20.3 °C; in data set [9] (20 mg in 1 mL IPA:water 95:5), 37.2 °C; in [9] (30 mg in 1 mL IPA:water 95:5), 48.5 °C; in data set [9] (40 mg in 1 mL IPA:water 95:5) it was 55.8 °C; in [9] (60 mg in 1 mL IPA:water 95:5) it was 64 °C. The “Clear Point Temperature” value in [9] (70 mg in 1 mL IPA:water 95:5) was determined as 68.6 °C. Moreover, the “Cloud Point Temperature” value is −7.8 °C in data set [9] (30 mg in 1 mL IPA:water 95:5), −1.8 °C in data set [9] (40 mg in 1 mL IPA:water 95:5), 14.5 °C in data set [9] (60 mg in 1 mL IPA:water 95:5) and 24.7 °C in data set [9] (70 mg in 1 mL IPA:water 95:5).
Turning to `Cl.NCc1cc(Oc2cccc(C(=O)N3C[C@@H](O)[C@H](F)C3)c2)nc(C(F)(F)F)c1` [Form 2 of Compound 1, (R,R)-trans-(3-((4-(aminomethyl)-6-(trifluoromethyl)pyridin-2-yl)oxy)phenyl)(3-fluoro-4-hydroxypyrrolidin-1-yl)methanone, hydrochloride salt], in data set [1], the “7 days storage @ 40° C./75% RH: appearance” value is “Waxy/glassy”. In addition, the “behaviour on storage conditions” value in [2] (1 week, 40° C. and 75% RH) is reported as “remained unchanged”. Also, in [2], the “7 days storage @ 40° C./75% RH: resulting form (XRPD)” value is “Form 2”. Further, in data set [2] (thermally stable, over time), the stability over time result was “converts over time to a waxy solid”.

These data come from US11459309B2, “Crystalline forms of a lysyl oxidase-like 2 inhibitor and methods of making” (PHARMAKEA, INC., priority 2016, dated 2022).
